In this assay the test system is Brassica napus (BRSNS). The experiment in a line: In vivo analyses Part C: drought stress, appearance vs stressed control plants in categories (BRSNS). Further details: key: 0: no positive effect; 10: slight positive effect; 20: clear positive effect; 30: strong positive effect. Particulars: dosage 25 g/ha, appearance vs stressed control plants after recovery phase, efficacy range of 3-4 pots. As to the method:
Seeds of monocotyledonous and dicotyledonous crop plants were sown in sandy loam in plastic or wood-fibre pots, covered with soil or sand and cultivated in a greenhouse under good growth conditions. The test plants were treated at the early leaf stage (BBCH10-BBCH13). To assure uniform water supply before commencement of stress, the potted plants were supplied with water by dam irrigation prior to substance application. The inventive compounds were first formulated as wettable powders (WP) or dissolved in a solvent mixture. The further dilution was effected with water supplemented with 0.2% wetting agent (e.g. agrotin). The finished spray liquor was sprayed onto the green parts of the plant at an equivalent water application rate of 600 I/ha. Substance application was followed immediately by stress treatment of the plants. For this purpose, the wood-fibre pots were transferred in plastic inserts in order to prevent them from subsequently drying out too quickly. Drought stress was induced by gradual drying out under the following conditions: “Day”: 14 hours with illumination at 26-30° C. “Night”: 10 hours without illumination at 18-20° C. The duration of the respective stress phases was guided mainly by the condition of the stressed control plants. It was ended (by re-irrigating and transfer to a greenhouse with good growth conditions) as soon as irreversible damage was observed on the stressed control plants. The end of the stress phase was followed by an about 4-7-day recovery phase, during which the plants were once again kept under good growth conditions in a greenhouse. The duration of the recovery phase was guided mainly by when the trial plants had attained a state which enabled visual scoring of potential effects, and was therefore variable. Once this juncture had been reached, the appearance of the plants treated with test substances was recorded in comparison to the stressed control plants by the following categories: [table] For each substance and dosage, 3-4 pots were treated and evaluated. BRSNS=Brassica napus

Structures are written as SMILES.

Regarding `COC(=O)C=C(C)C=CC(O)(C1CC1)C1(C#N)CC1` (racemic) [I.2-543], the “Effect (BRSNS)” value is recorded as 30.

(Values after US10322995B2, “Substituted cyano cycloalkyl penta-2,4-dienes, cyano cycloalkyl pent-2-en-4-ynes, cyano heterocyclyl penta-2,4-dienes and cyano heterocyclyl pent-2-en-4-ynes as active substances against abiotic plant stress” (BAYER CROPSCIENCE AKTIENGESELLSCHAFT, priority 2014, dated 2019).)
